“Also recorded” adds a separate entry of the source.
Tested on: region of myocardium that includes a myocardial infarction
Assay: Occlusion of the left anterior descending artery (myocardial infarction) in rats, daily intraperitoneal GM284, survival and histological analysis
Assay type: in vivo, Sprague Dawley rats
Excerpt: The left anterior descending artery (“LAD”) of 36 male adult Sprague Dawley rats weighing between 250 and 270 grams was occluded by placement of a ligature around the LAD and pulling it taught. The ligature was left in place to create a chronic ischemic area (myocardial infarction) distal to the occlusion. Following the closure of the chest and evacuation of the extra-pulmonary air to reverse the surgery-induced pneumothorax, the rats were returned to their cages for recovery, where they had ad libitum access to water and food for the duration of the experiment. Immediately following surgery the rats received the analgesic Buprenex at a dose of 1.5 mg/kg subcutaneously every 12 hours for the first 72 hours, and then on an as-needed basis.
The GM284 was dissolved to a final concentration of 5 mg/kg in phosphate buffered saline (“PBS”); 10 μM stock solution of GM284 in dimethyl sulfoxide (“DMSO”) was diluted in PBS. The vehicle was 250 μl of DMSO into 10 ml PBS.
Postsurgically, the rats were randomly assigned into six (6) experimental groups (A through F) with 6 animals in each group (n=36). “Vehicle” groups A, C and E received daily intraperitoneal injections of vehicle; and, “treatment” groups B, D, and F were treated with intraperitoneal injections of GM284.
Animals in treatment groups B, D, and F received daily intraperitoneal injections of GM284 at 5 mg/kg; and, animals in vehicle groups A, C and E received daily intraperitoneal injections of only the vehicle in which the GM284 was dissolved.
Animals in vehicle group A and treatment group B were treated for 2 weeks after LAD ligation and sacrificed.
Animals in vehicle group C and treatment group D were treated for 2 weeks following LAD ligation. Thereafter, the vehicle or GM284 injections were withdrawn and the animals were allowed to survive for an additional 2 weeks prior to sacrifice.
Animals in vehicle group E treatment group F were treated daily for 30 days following LAD ligation and then sacrificed.
Prior to sacrifice, the animals were anesthetized the hearts were harvested and processed for histological analysis by submersion-fixing in 4% paraformaldehyde at 4° C. overnight, followed by dehydration and embedding in paraffin. Eight-micra tissue sections were cut through the infarcted area and stained with H&E and trichrome. The histological sections were viewed by light microscopy, by a reviewer blind to the treatment groups, and evaluated for: • 1) the size of the infarct; • 2) the presence of viable cardiac myocytes; and, • 3) the extent of collateral vascularity.

[1] = two weeks after LAD occlusion, daily GM284 5 mg/kg i.p., versus vehicle, FIG. 2b

In the case of CCC(C)(C)C(=O)C(=O)N1CCC[C@H]1c1nnc([C@@H]2CCCN2C(=O)C(=O)C(C)(C)CC)o1 [GM284], the “scarring / fibrosis (trichrome stain)” value (four weeks after LAD occlusion, daily treatment (group F), vehicle: extensive area of infarction, FIG. 3a) is reported as “virtually no scarring; also recorded: minimal fibrosis”, the “cardiac histology (H&E stain)” value (four weeks after LAD occlusion, daily treatment (group F), vehicle: extensive fibrosis, FIG. 3c) is reported as “normal cardiac histology” and the “histological appearance of the cardiac tissue after withdrawal of treatment” value (treated two weeks, survived additional two weeks without treatment (group D), compared with animals analyzed at cessation of treatment) is reported as “did not significantly alter the histological appearance”. For the same compound, the “survival over the length of the study” value (treatment groups B, D, F, 5 mg/kg daily intraperitoneal after LAD ligation, vehicle group mortality 25%) was 100%, the “intramural vascularity (histology)” value [1] was “increase in the intramural vascularity” and the “viable myocardial cells (histology)” value [1] was “increase in viable myocardial cells”. For the same compound, the “extent of collateral vascularity (histology)” value (two weeks after LAD occlusion, daily GM284 5 mg/kg i.p., rare in vehicle treated tissue, FIG. 2b) was “numerous collateral vessels”.

— patent publication US20080015236A1, “METHOD FOR PROMOTING MYOCARDIAL REGENERATION AND USES THEREOF” (priority 2006, published 2008)
